Reference: patent publication US7803825B2, “Aminoalkylazole derivatives as histamine-3 antagonists” (Wyeth LLC, priority 2007, dated 2010)
Counter-ions that a name gives are not always drawn.

These molecules were tested against T1, histamine-3 (H3) receptor (Homo sapiens, UniProt Q9Y5N1) (assay: Methyl Histamine Binding in Human Histamine-3 Receptor Cell Line). Conditions: membranes of stably transfected HEK293T cells, radioligand 1 nM, Ki from IC50 by Cheng-Prusoff.
T1 construct: expressed in transfected cells; host or cells: HEK293T
Description: Evaluation of Methyl Histamine Binding in Human Histamine-3 Receptor Cell Line
The affinity of test compounds for the histamine-3 (H3) receptor is evaluated in the following manner. Stably transfected HEK293T cells are grown in DMEM containing 10% heat inactivated FBS and G-418 (500 ug/ml). Cells are scraped from the plate, transferred to centrifuge tubes, washed one time in PBS by centrifugation in a Sorvall RT7 Plus centrifuge (2000 rpm 10 minutes, 4° C.). The resulting pellets are stored at 80° C. until ready for use. Cells are re-suspended in buffer (50 mM Tris pH=7.5) and placed in a Dounce homogenizer, douncing ten times to homogenize cells. The homogenate is spun down by centrifugation (Sorvall RT7 Plus, 1800 rpm 10 minutes, 4° C.). The supernatant is placed in a Corex tube and spun down by centrifugation (Sorvall RC 5c Plus, 17,000 rpm 20 minutes, 4° C.). The pellet is resuspended in buffer (50 mM Tris, pH 7.5). Protein concentration (ug/ul) is determined using the Micro-BCA Protein Determination. The binding assay is set up in a 96 well microtiter plate in a total volume of 250 uL. Non-specific binding is determined in the presence of 10 uM clobenpropit. The final radioligand concentration is 1 nM. The test compound is serially diluted using the Beckman Biomek2000 to a final approximate range of 100 uM to 100 pM. Membranes are suspended in buffer, homogenized in 2 bursts of ten seconds using a Vitris mechanical homogenizer set at power setting 5. Ten μg of membranes are added to each well. Following a one hour incubation at 30° C., the reaction is terminated by the addition of ice cold buffer and rapid filtration with a Packard Filtermate Harvester through a GF/B filter pre-soaked with 1% PEI for one hour. The plate is dried for one hour at 37° C. and 60 μL Microscint Scintillant is added to each well. The CPM per well is measured on a Packard Top Count NXT. Ki values are determined in nM. The Ki is calculated from the IC50 (i.e. the concentration of competing ligand which displaces 50% of the specific binding of the radioligand). CPM values are expressed as % specific binding and plotted vs compound concentration. A curve is fitted using a four-parameter logistic fit and the IC50 value is determined. The Ki is calculated from this using the Cheng-Prusoff equation: […]=IC50/1+(L/Kd) where L=concentration of free radioligand used in the assay, and Kd is the dissociation constant of the radioligand for the receptor. L is determined for each experiment by counting an aliquot of the diluted radioligand (corresponding to that added to each well) and the Kd has previously been determined under identical conditions for this cell line/radioligand.

T1 sequence (Q9Y5N1 whole entry): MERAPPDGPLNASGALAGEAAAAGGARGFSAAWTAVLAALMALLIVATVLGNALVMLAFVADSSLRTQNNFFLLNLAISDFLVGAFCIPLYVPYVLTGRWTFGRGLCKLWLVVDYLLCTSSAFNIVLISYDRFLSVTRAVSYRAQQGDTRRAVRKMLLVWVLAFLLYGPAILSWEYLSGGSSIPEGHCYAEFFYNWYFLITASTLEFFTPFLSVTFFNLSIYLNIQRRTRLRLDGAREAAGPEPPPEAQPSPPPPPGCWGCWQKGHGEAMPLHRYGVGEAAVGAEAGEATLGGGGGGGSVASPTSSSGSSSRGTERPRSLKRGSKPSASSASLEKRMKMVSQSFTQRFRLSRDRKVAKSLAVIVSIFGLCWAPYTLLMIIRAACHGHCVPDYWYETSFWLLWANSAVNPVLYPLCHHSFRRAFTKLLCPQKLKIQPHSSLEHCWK

First: C[C@@H]1CCCN1Cc1coc(-c2ccc(Cn3c(-c4ccccc4)nc4ccccc43)cc2)n1 [Example 119, 1-[4-(4-{[(2R)-2-methylpyrrolidin-1-yl]methyl}-1,3-oxazol-2-yl)benzyl]-2-phenyl-1H-benzimidazole]
Second: c1ccc(-c2nc3ccccc3n2Cc2ccc(-c3nc(CN4CCCCC4)co3)cc2)cc1 [Example 123, 2-phenyl-1-{4-[4-(piperidin-1-ylmethyl)-1,3-oxazol-2-yl]benzyl}-1H-benzimidazole]
The Ki of the first is higher: 10.1 to 25 nM for the first, at most 10 nM for the second.

`FC(F)(F)c1nc2ccccc2n1Cc1ccc(-c2nc(CN3CCCCCC3)co2)cc1` [Example 120, 1-{4-[4-(azepan-1-ylmethyl)-1,3-oxazol-2-yl]benzyl}-2-(trifluoromethyl)-1H-benzimidazole] and `FC(F)(F)c1nc2ccccc2n1Cc1ccc(-c2nc(CN3CCCCC3)co2)cc1` [Example 122, 1-{4-[4-(piperidin-1-ylmethyl)-1,3-oxazol-2-yl]benzyl}-2-(trifluoromethyl)-1H-benzimidazole] fall in the same range of Ki: 10.1 to 25 nM for the first, 10.1 to 25 nM for the second.

First: c1ccc(-c2nc3ccccc3n2Cc2ccc(-c3nc(CN4CCCCCC4)co3)cc2)cc1 [Example 121, 1-{4-[4-(azepan-1-ylmethyl)-1,3-oxazol-2-yl]benzyl}-2-phenyl-1H-benzimidazole]
Second: Cn1c(CN2CCCC2)cnc1-c1ccc(Cn2cnc3ccccc32)cc1 [Example 139, 1-[4-(1-Methyl-5-pyrrolidin-1-ylmethyl-1H-imidazol-2-yl)-benzyl]-1H-benzoimidazole fumarate salt]
The Ki of the first is lower: 25.1 to 50 nM for the first, 50.1 to 100 nM for the second. The first binds more tightly here.

`C[C@H]1CCCN1Cc1cnc(-c2ccc(Cn3cnc4ccccc43)cc2)n1C` [Example 140, (5)-1-(4-(1-methyl-5-((2-methylpyrrolidin-1-yl)methyl)-1H-imidazol-2-yl)benzyl)-1H-benzo[d]imidazole fumarate salt] and `Cn1c(CN2CCCC2)cnc1-c1ccc(-n2cnc3ccccc32)cc1` [Example 151, 1-[4-(1-Methyl-5-pyrrolidin-1-ylmethyl-1H-imidazol-2-yl)-phenyl]-1H-benzoimidazole fumarate salt] cannot be ordered by Ki: at most 10 nM for the first, at most 10 nM for the second.

`Cn1c(CN2CCCC2)cnc1-c1ccccc1` [Example 143, 1-Methyl-2-phenyl-5-pyrrolidin-1-ylmethyl-1H-imidazole fumarate salt] and `Cn1c(CN2CCCC2)cnc1-c1ccc(-c2ccccc2)cc1` [Example 146, 2-Biphenyl-4-yl-1-methyl-5-pyrrolidin-1-ylmethyl-1H-imidazole fumarate salt] cannot be ordered by Ki: over 100 nM for the first, over 100 nM for the second.

`Cn1c(CN2CCCC2)cnc1-c1ccc(C#N)cc1` [Example 144, 4-(1-Methyl-5-pyrrolidin-1-ylmethyl-1H-imidazol-2-yl)-benzonitrile fumarate salt] and `Cn1c(CN2CCCC2)cnc1-c1ccc(F)cc1` [Example 145, 2-(4-Fluoro-phenyl)-1-methyl-5-pyrrolidin-1-ylmethyl-1H-imidazole fumarate salt] cannot be ordered by Ki: over 100 nM for the first, over 100 nM for the second.
